Measurements as given in publication PMC12051030, “Identification of inhibitors of the Salmonella FraB deglycase, a drug target” (FEBS Open Bio, 2025).
Read-outs that look alike come from different tables or passages of the source.

Molecular target: His6‐FraB (Salmonella FraB deglycase) (Salmonella enterica subsp. enterica serovar Typhimurium, UniProt Q8ZLD0)
Assay: FraB-G6PD coupled assay, Michaelis–Menten analysis for K I and mode of inhibition
Assay type: biochemical
Conditions: for change of IC50 values with increasing [S]/K m: 'this trend' = IC50 does not vary with [S]/K m, change evident only from 0.2 to 1.6× [S]/K m; for slope in plots of 1/IC50 vs. v o/V max: Fig. S12; for IC50: unit from Fig. S11 axis, read-out: IC50 (IC50 versus [S]/Km plots); for K IU/K IC ratio: average (±SE), from 1/IC50 versus v o/V max plots; for Ki: from Michaelis–Menten analysis of FraB at different inhibitor concentrations, average and standard error from two measurements, read-out: K I; for mode of inhibition: kinetic analyses (Lineweaver‐Burk, α′ vs [I], IC50 vs [S]/K m, 1/IC50 vs v o/V max)
Protocol: To determine the K I of each inhibitor, 29 μL of master mix was added to two rows of a 384‐well Greiner plate, using a single‐channel pipette, and incubated at 20 °C for 20 min. A 12‐channel pipette was then used to transfer and mix 1 μL of varying [6‐P‐F‐Asp] to all 48 wells. The final reaction (30 μL) consisted of 25 mM HEPES pH 8.0 at 20 °C, 5 mM MgCl2, 0.1 mM EGTA, 0.5 mM NAD^+, 1 mU G6PD, 100 nM His6‐FraB, varying (6‐P‐F‐Asp) (between 8 and 12 concentrations), and varying [inhibitor] (between three and five concentrations) in 10% (v/v) DMSO. NADH fluorescence was monitored every 10 s for 10 min total on a SPARK® multi‐mode multiplate reader (Tecan), as described above, and plotted against time. Slopes of the linear range of each curve were converted to initial velocities, as described above, that were then plotted against [6‐P‐F‐Asp]. A hyperbolic curve was then fitted to the data to obtain the k cat and K m values according to the formula: v o = (V max × [S])/(K m + [S]).
To determine the correlation between the observed and expected initial velocities (Fig. S5A), these values were exported from Kaleidagraph, plotted against one another, and a curve was fit using the formula: y = mx + b. The differences between observed and expected initial velocities (residuals) were then depicted as box‐and‐whisker plots (Fig. S5B). Lineweaver‐Burk plots were generated by graphing 1/v o versus 1/[S] and curves were fit to the data with Kaleidagraph using the formula: 1/v o = (Km/V max).(1/[S]) + (1/V max). The k cat and K m parameters were then converted into α′ values by dividing the k cat of the control (no inhibitor) by either itself (α′= 1) or the k cat of test samples with variable [inhibitor]. Those α′ values were plotted against [inhibitor] and K I values were determined from the equation α = 1 + [I]/K I.
The initial velocities used to generate the Michaelis–Menten plots were also employed to obtain the IC50 vs [S]/K m plots. For a given [S], initial velocities were converted into relative activities and plotted versus [inhibitor]. […] The IC50 values determined from the IC50 vs [S]/K m plots were then used to plot 1/IC50 versus v o/V max. A curve was fit to the data using the formula: y = mx + b. The Y‐intercept of the 1/IC50 versus v o/V max plot is equal to 1/K IC, and the slope, for mixed inhibitors, is equal to 1/K IU – 1/K IC. […] Data analyses were performed as described above (see Tables S1–S7 for curve‐fit errors and goodness‐of‐fit values).

[1] = Trial 1, 6-P-F-Asp 7.38 µM, S/Km 0.175714
[2] = Trial 1, 6-P-F-Asp 15.7 µM, S/Km 0.37381
[3] = Trial 1, 6-P-F-Asp 31.3 µM, S/Km 0.745238
[4] = Trial 1, 6-P-F-Asp 62.5 µM, S/Km 1.488095
[5] = Trial 1, 6-P-F-Asp 125 µM, S/Km 2.97619
[6] = Trial 1, 6-P-F-Asp 250 µM, S/Km 5.952381
[7] = Trial 1, 6-P-F-Asp 500 µM, S/Km 11.90476
[8] = Trial 1, 6-P-F-Asp 750 µM, S/Km 17.85714
[9] = Trial 1, 6-P-F-Asp 1000 µM, S/Km 23.80952
[10] = Trial 1, 6-P-F-Asp 2000 µM, S/Km 47.61905
[11] = Trial 1, 6-P-F-Asp 3000 µM, S/Km 71.42857
[12] = Trial 2, 6-P-F-Asp 7.38 µM, S/Km 0.175714
[13] = Trial 2, 6-P-F-Asp 15.7 µM, S/Km 0.37381
[14] = Trial 2, 6-P-F-Asp 31.3 µM, S/Km 0.745238
[15] = Trial 2, 6-P-F-Asp 62.5 µM, S/Km 1.488095
[16] = Trial 2, 6-P-F-Asp 125 µM, S/Km 2.97619
[17] = Trial 2, 6-P-F-Asp 250 µM, S/Km 5.952381
[18] = Trial 2, 6-P-F-Asp 500 µM, S/Km 11.90476
[19] = Trial 2, 6-P-F-Asp 750 µM, S/Km 17.85714
[20] = Trial 2, 6-P-F-Asp 1000 µM, S/Km 23.80952
[21] = Trial 2, 6-P-F-Asp 2000 µM, S/Km 47.61905
[22] = Trial 2, 6-P-F-Asp 3000 µM, S/Km 71.42857

His6‐FraB (Salmonella FraB deglycase), sequence (Q8ZLD0 entry or part of it): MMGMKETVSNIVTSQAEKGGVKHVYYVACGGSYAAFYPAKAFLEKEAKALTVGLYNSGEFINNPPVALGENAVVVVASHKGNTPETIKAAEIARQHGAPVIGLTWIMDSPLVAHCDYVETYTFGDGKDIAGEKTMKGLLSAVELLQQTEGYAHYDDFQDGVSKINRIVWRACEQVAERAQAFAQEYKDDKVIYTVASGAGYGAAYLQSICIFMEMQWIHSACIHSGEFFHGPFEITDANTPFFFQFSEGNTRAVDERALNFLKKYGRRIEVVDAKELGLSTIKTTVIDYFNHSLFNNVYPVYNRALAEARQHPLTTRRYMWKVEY

Question: `Cc1cccc(Cl)c1-n1sc(=O)n(CC2CC2)c1=O` [1524:E12, 2‐(2‐chloro‐6‐methylphenyl)‐4‐(cyclopropylmethyl)‐1,2,4‐thiadiazolidine‐3,5‐dione] was tested. Which “change of IC50 values with increasing [S]/K m” value did it give?
Answer: The value was “exhibit this trend”.

Question: What about the “slope in plots of 1/IC50 vs. v o/V max” value of the same compound?
Answer: The value was “no”.

Question: And the IC50 [1]?
Answer: The IC50 was 5.182 µM.

Question: And the IC50 [2]?
Answer: Its IC50 is 4.4596 µM.

Question: And the IC50 [3]?
Answer: Its IC50 is 6.2505 µM.

Question: What about the IC50 [4] of the same compound?
Answer: The IC50 was 5.0417 µM.

Question: And the IC50 [5]?
Answer: The IC50 was 4.4301 µM.

Question: And the IC50 [6]?
Answer: The IC50 was 4.497 µM.

Question: And the IC50 [7]?
Answer: The IC50 was 4.5819 µM.

Question: And the IC50 [8]?
Answer: The IC50 was 4.2959 µM.

Question: And the IC50 [9]?
Answer: The IC50 was 4.7019 µM.

Question: What about the IC50 [10] of the same compound?
Answer: Its IC50 is 4.852 µM.

Question: And the IC50 [11]?
Answer: Its IC50 is 5.5036 µM.

Question: What about the IC50 [12] of the same compound?
Answer: The IC50 was 4.2249 µM.

Question: And the IC50 [13]?
Answer: Its IC50 is 5.1146 µM.

Question: What about the IC50 [14] of the same compound?
Answer: Its IC50 is 4.8438 µM.

Question: What about the IC50 [15] of the same compound?
Answer: Its IC50 is 5.1187 µM.

Question: What about the IC50 [16] of the same compound?
Answer: The IC50 was 5.0178 µM.

Question: And the IC50 [17]?
Answer: The IC50 was 5.2509 µM.

Question: What about the IC50 [18] of the same compound?
Answer: The IC50 was 4.9663 µM.

Question: And the IC50 [19]?
Answer: Its IC50 is 4.9173 µM.

Question: What about the IC50 [20] of the same compound?
Answer: The IC50 was 5.0782 µM.

Question: And the IC50 [21]?
Answer: The IC50 was 5.2035 µM.

Question: And the IC50 [22]?
Answer: The IC50 was 5.7824 µM.

Question: What about the “K IU/K IC ratio” value of the same compound?
Answer: The value was 0.95 ± 0.05.

Question: And the Ki?
Answer: Its Ki is 4 µM.

Question: And the mode of inhibition?
Answer: The mode of inhibition was “pure noncompetitive inhibitors”.

Question: And the “IC50, mean and standard deviation of all IC50 values in IC50 vs [S]/Km plot” value (trial shown in Fig. S11 panels M-X)?
Answer: The value was 5 ± 0.4 µM.

Question: What about the “IC50, mean and standard deviation of all IC50 values in IC50 vs [S]/Km plot” value (trial shown in Fig. S11 panels Y-AJ) of the same compound?
Answer: Its value is 5 ± 0.6 µM.

Question: `O=c1sn(-c2ccccc2C(F)(F)F)c(=O)n1CC1CC1` [1524:G12, 4‐(cyclopropylmethyl)‐2‐[2‐(trifluoromethyl)phenyl]‐1,2,4‐thiadiazolidine‐3,5‐dione] was tested. Which “change of IC50 values with increasing [S]/K m” value did it give?
Answer: The value was “exhibit this trend”.

Question: And the “slope in plots of 1/IC50 vs. v o/V max” value?
Answer: Its value is “no”.

Question: What about the IC50 [1] of the same compound?
Answer: Its IC50 is 1.08 µM.

Question: And the IC50 [2]?
Answer: The IC50 was 1.39 µM.

Question: And the IC50 [3]?
Answer: Its IC50 is 1.54 µM.

Question: And the IC50 [4]?
Answer: Its IC50 is 1.44 µM.

Question: What about the IC50 [5] of the same compound?
Answer: Its IC50 is 1.55 µM.

Question: And the IC50 [6]?
Answer: Its IC50 is 1.47 µM.

Question: And the IC50 [7]?
Answer: The IC50 was 1.59 µM.

Question: And the IC50 [8]?
Answer: Its IC50 is 1.51 µM.

Question: And the IC50 [9]?
Answer: The IC50 was 1.36 µM.

Question: And the IC50 [10]?
Answer: Its IC50 is 1.44 µM.

Question: And the IC50 [11]?
Answer: Its IC50 is 1.65 µM.

Question: What about the IC50 [12] of the same compound?
Answer: The IC50 was 1.91 µM.

Question: And the IC50 [13]?
Answer: Its IC50 is 1.49 µM.

Question: And the IC50 [14]?
Answer: Its IC50 is 1.54 µM.

Question: What about the IC50 [15] of the same compound?
Answer: Its IC50 is 1.64 µM.

Question: And the IC50 [16]?
Answer: The IC50 was 1.36 µM.

Question: What about the IC50 [17] of the same compound?
Answer: Its IC50 is 1.27 µM.

Question: What about the IC50 [18] of the same compound?
Answer: The IC50 was 1.41 µM.

Question: And the IC50 [19]?
Answer: The IC50 was 1.42 µM.

Question: What about the IC50 [20] of the same compound?
Answer: Its IC50 is 1.44 µM.

Question: And the IC50 [21]?
Answer: The IC50 was 1.37 µM.

Question: And the IC50 [22]?
Answer: The IC50 was 1.66 µM.

Question: What about the “K IU/K IC ratio” value of the same compound?
Answer: Its value is 0.9 ± 0.1.

Question: What about the Ki of the same compound?
Answer: The Ki was 1 µM.

Question: What about the mode of inhibition of the same compound?
Answer: Its mode of inhibition is “pure noncompetitive inhibitors”.
